Source: PMC12527922, “Cocaine chemogenetics blunts drug-seeking by synthetic physiology” (Nature, 2025)
Values joined by “and” are separate entries in the source; they are usually repeats but may differ in a detail not shown here. Equal values may be shown once.

What was measured:
[1] = target: coca-5HT3 (α7(L141G,G175K,Y210F,Y217F)–5HT3) (Homo sapiens, UniProt P36544, G175K/L141G/Y210F/Y217F); assay: Membrane potential assay, coca-5HT3 in HEK293; details: for Response / Max normalized Response: coca-5HT3; for Max normalized Response: ED Fig 3b
Sequence of coca-5HT3 (α7(L141G,G175K,Y210F,Y217F)–5HT3) (P36544 23-224 L141G/G175K/Y210F/Y217F): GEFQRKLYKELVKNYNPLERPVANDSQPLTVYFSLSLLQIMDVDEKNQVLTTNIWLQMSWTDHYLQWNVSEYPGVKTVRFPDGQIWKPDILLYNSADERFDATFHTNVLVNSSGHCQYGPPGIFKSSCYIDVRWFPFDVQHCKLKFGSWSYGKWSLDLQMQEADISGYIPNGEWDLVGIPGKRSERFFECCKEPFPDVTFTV
Sequence of coca-5HT3 (α7(L141G,G175K,Y210F,Y217F)–5HT3) (P23979 242-489, further chain): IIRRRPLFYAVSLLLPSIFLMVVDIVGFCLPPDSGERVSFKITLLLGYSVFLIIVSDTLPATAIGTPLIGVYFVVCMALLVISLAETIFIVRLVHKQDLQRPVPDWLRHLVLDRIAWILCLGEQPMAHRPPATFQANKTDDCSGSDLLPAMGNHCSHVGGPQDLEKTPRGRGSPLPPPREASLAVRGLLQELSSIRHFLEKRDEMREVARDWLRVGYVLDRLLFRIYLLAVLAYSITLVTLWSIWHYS

unmodified α7–5HT3 = target: T1, unmodified α7–5HT3 (UniProt P23979+P36544, M226I/T225I); assay: Membrane potential assay, unmodified α7–5HT3; format: cell-based, human α7 nAChR LBD, mouse 5HT3 IPD
T1 construct: expressed in transfected cells; host or cells: HEK293 (ATCC CRL-1573), pcDNA3.1
T1 sequence (P36544+P23979 fused P36544:T225I/P36544:M226I): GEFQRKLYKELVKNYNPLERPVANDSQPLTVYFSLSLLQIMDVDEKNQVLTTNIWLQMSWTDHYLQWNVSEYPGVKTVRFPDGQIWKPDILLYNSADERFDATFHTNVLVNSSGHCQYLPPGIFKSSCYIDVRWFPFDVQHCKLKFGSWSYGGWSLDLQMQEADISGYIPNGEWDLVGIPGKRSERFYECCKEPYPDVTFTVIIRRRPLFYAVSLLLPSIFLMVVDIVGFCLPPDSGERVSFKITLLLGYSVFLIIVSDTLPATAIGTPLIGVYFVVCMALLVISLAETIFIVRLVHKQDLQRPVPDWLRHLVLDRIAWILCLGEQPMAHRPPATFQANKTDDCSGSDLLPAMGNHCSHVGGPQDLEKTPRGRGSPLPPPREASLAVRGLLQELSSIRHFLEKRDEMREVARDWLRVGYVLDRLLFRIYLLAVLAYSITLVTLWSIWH

[2] = coca5HT3, [Nicotine] 1.37037 uM
[3] = coca5HT3, [Nicotine] 4.11111 uM
[4] = coca5HT3, [Nicotine] 12.3333 uM
[5] = a75HT3, [Nicotine] 0.0457247 uM

In the case of `CN1CCC[C@H]1c1cccnc1` [nicotine], the “reduced potency for coca-5HT3 versus unmutated α7–5HT3” value [1] is reported as “greater than 300 fold”, the “max response of each dose-response replicate” value ([1]; coca5HT3, Nicotine, used for normalization) is reported as 0.477 and 0.607 and 0.383 and 0.555 and the “Max normalized response, AVG” value [1, 2] is reported as 0.06271. The “Max normalized response, replicates” value [1, 2] was 0.03243 and 0.1069 and 0.09061 and 0.02089, the “Response, dose-response replicates (DR 1-4)” value (“Response … (DR 1-4)” below) [1, 2] was 0.051 and 0.055 and 0.008 and 0.018 and the “Max normalized response, AVG” value [1, 3] was 0.05584. For the same molecule, the “Max normalized response, replicates” value [1, 3] was 0.06667 and 0.05451 and 0.03954 and 0.06266, the “Response … (DR 1-4)” value [1, 3] was 0.026 and 0.024 (2×) and 0.037 and the “Max normalized response, AVG” value [1, 4] was 0.06127. The “Max normalized response, replicates” value [1, 4] was 0.03964 and 0.07966 and 0.08402 and 0.04178, the “Response … (DR 1-4)” value [1, 4] was 0.038 and 0.051 and 0.016 and 0.022 and the “Max normalized response, AVG” value ([1]; coca5HT3, [Nicotine] 37 uM) was 0.1199. The “Max normalized response, replicates” value ([1]; coca5HT3, [Nicotine] 37 uM) was 0.1225 and 0.1426 and 0.196 and 0.01828, the “Response … (DR 1-4)” value ([1]; coca5HT3, [Nicotine] 37 uM) was 0.068 (2×) and 0.119 and 0.007 and the “Max normalized response, AVG” value ([1]; coca5HT3, [Nicotine] 111 uM) was 0.2452. The “Max normalized response, replicates” value ([1]; coca5HT3, [Nicotine] 111 uM) was 0.3009 and 0.2537 and 0.374 and 0.05222, the “Response … (DR 1-4)” value ([1]; coca5HT3, [Nicotine] 111 uM) was 0.121 and 0.227 and 0.02 and 0.167 and the “Max normalized response, AVG” value ([1]; coca5HT3, [Nicotine] 333 uM) was 0.4535. The “Max normalized response, replicates” value ([1]; coca5HT3, [Nicotine] 333 uM) was 0.5495 and 0.5975 and 0.5157 and 0.1514, the “Response … (DR 1-4)” value ([1]; coca5HT3, [Nicotine] 333 uM) was 0.285 and 0.313 and 0.058 and 0.305 and the “Max normalized response, AVG” value ([1]; coca5HT3, [Nicotine] 1000 uM) was 0.6843. The “Max normalized response, replicates” value ([1]; coca5HT3, [Nicotine] 1000 uM) was 0.8198 and 0.7044 and 0.7249 and 0.4883, the “Response … (DR 1-4)” value ([1]; coca5HT3, [Nicotine] 1000 uM) was 0.44 and 0.187 and 0.455 and the “Max normalized response, AVG” value ([1]; coca5HT3, [Nicotine] 3000 uM) was 1. For the same molecule, the “Max normalized response, replicates” value ([1]; coca5HT3, [Nicotine] 3000 uM) was 1, the “Response … (DR 1-4)” value ([1]; coca5HT3, [Nicotine] 3000 uM) was 0.477 and 0.607 and 0.383 and 0.555 and the Response ([1]; conc 0.0137 uM, ED Fig. 2c) was 0.106. The Response ([1]; conc 0.123 uM, ED Fig. 2c) was 0.216, the Response ([1]; conc 0.37 uM, ED Fig. 2c) was 0.045 and the Response ([1]; conc 10 uM, ED Fig. 2c) was 0.163. The Response ([1]; conc 30 uM, ED Fig. 2c) was 0.238, the “activity at unmutated α7–5HT3 chimeric channel” value (unmodified α7–5HT3) was “agonist” and the “max response of each dose-response replicate” value (unmodified α7–5HT3; a75HT3, Nicotine, used for normalization) was 0.486 (2×) and 0.554 (2×) and 0.608 (2×). For the same molecule, the “Max normalized response, AVG” value (unmodified α7–5HT3; [5]) was 0.008293, the “Max normalized response, replicates” value (unmodified α7–5HT3; [5]) was 0 (2×) and 0.02166 (2×) and 0.01151 (2×) and the “Response, dose-response replicates (DR 1-6)” value (from here on “Response … (DR 1-6)”) (unmodified α7–5HT3; [5]) was 0 (2×) and 0.012 (2×) and 0.007 (2×). The “Max normalized response, AVG” value (unmodified α7–5HT3; a75HT3, [Nicotine] 0.137174 uM) was 0.001891, the “Max normalized response, replicates” value (unmodified α7–5HT3; a75HT3, [Nicotine] 0.137174 uM) was 0.002058 (2×) and 0.001805 (2×) and 0.001645 (2×) and the “Response … (DR 1-6)” value (unmodified α7–5HT3; a75HT3, [Nicotine] 0.137174 uM) was 0.001. For the same molecule, the “Max normalized response, AVG” value (unmodified α7–5HT3; a75HT3, [Nicotine] 0.411523 uM) was 0.009729, the “Max normalized response, replicates” value (unmodified α7–5HT3; a75HT3, [Nicotine] 0.411523 uM) was 0.004115 (2×) and 0.03069 (2×) and 0 (2×) and the “Response … (DR 1-6)” value (unmodified α7–5HT3; a75HT3, [Nicotine] 0.411523 uM) was 0.002 (2×) and 0.017 (2×) and 0 (2×). For the same molecule, the “Max normalized response, AVG” value (unmodified α7–5HT3; a75HT3, [Nicotine] 1.23457 uM) was 0.08187, the “Max normalized response, replicates” value (unmodified α7–5HT3; a75HT3, [Nicotine] 1.23457 uM) was 0.1152 (2×) and 0 (2×) and 0.09704 (2×) and the “Response … (DR 1-6)” value (unmodified α7–5HT3; a75HT3, [Nicotine] 1.23457 uM) was 0.056 (2×) and 0 (2×) and 0.059 (2×). For the same molecule, the “Max normalized response, AVG” value (unmodified α7–5HT3; a75HT3, [Nicotine] 3.7037 uM) was 0.6699, the “Max normalized response, replicates” value (unmodified α7–5HT3; a75HT3, [Nicotine] 3.7037 uM) was 0.8354 (2×) and 0.4874 (2×) and 0.5214 (2×) and the “Response … (DR 1-6)” value (unmodified α7–5HT3; a75HT3, [Nicotine] 3.7037 uM) was 0.406 (2×) and 0.27 (2×) and 0.317 (2×). For the same molecule, the “Max normalized response, AVG” value (unmodified α7–5HT3; a75HT3, [Nicotine] 11.1111 uM) was 1, the “Max normalized response, replicates” value (unmodified α7–5HT3; a75HT3, [Nicotine] 11.1111 uM) was 1 and the “Response … (DR 1-6)” value (unmodified α7–5HT3; a75HT3, [Nicotine] 11.1111 uM) was 0.486 (2×) and 0.554 (2×) and 0.608 (2×). The “Max normalized response, AVG” value (unmodified α7–5HT3; a75HT3, [Nicotine] 33.3333 uM) was 0.8953, the “Max normalized response, replicates” value (unmodified α7–5HT3; a75HT3, [Nicotine] 33.3333 uM) was 0.8436 (2×) and 0.9711 (2×) and 0.9227 (2×) and the “Response … (DR 1-6)” value (unmodified α7–5HT3; a75HT3, [Nicotine] 33.3333 uM) was 0.41 (2×) and 0.538 (2×) and 0.561 (2×). The “Max normalized response, AVG” value (unmodified α7–5HT3; a75HT3, [Nicotine] 100 uM) was 0.8025, the “Max normalized response, replicates” value (unmodified α7–5HT3; a75HT3, [Nicotine] 100 uM) was 0.9585 (2×) and 0.8503 (2×) and 0.5988 and the “Response … (DR 1-6)” value (unmodified α7–5HT3; a75HT3, [Nicotine] 100 uM) was 0.291 and 0.531 (2×) and 0.517 (2×).
With `N[C@@H](CCC(=O)O)C(=O)O` [Glutmate] the Response ([1]; conc 0.457247 uM, ED Fig 3a) was 0.109, the Response ([1]; conc 1.37174 uM, ED Fig 3a) was 0.069 and the Response ([1]; conc 12.3457 uM, ED Fig 3a) was 0. The Response ([1]; conc 37.037 uM, ED Fig 3a) was 0.041, the Response ([1]; conc 111.111 uM, ED Fig 3a) was 0.031 and the Response ([1]; conc 333.333 uM, ED Fig 3a) was 0.048. For the same molecule, the Response ([1]; conc 1000 uM, ED Fig 3a) was 0.028.
In the case of `CNC[C@H](O)c1ccc(O)c(O)c1` [Epinephrine], the Response ([1]; conc 0.457247 uM, ED Fig 3a) is reported as 0.136, the Response ([1]; conc 1.37174 uM, ED Fig 3a) is reported as 0.141 and the Response ([1]; conc 12.3457 uM, ED Fig 3a) is reported as 0.06. It also gave a Response ([1]; conc 37.037 uM, ED Fig 3a) of 0.029 and a Response ([1]; conc 111.111 uM, ED Fig 3a) of 0.188.
With `CN1[C@@H]2C[C@@H](OC(=O)[C@H](CO)c3ccccc3)C[C@H]1[C@@H]1O[C@@H]12` [Scopolamine] the “Max normalized Response” value ([1]; conc 0.137 uM) was 0.06195, the “Max normalized Response” value ([1]; conc 3.7 uM) was 0.06448 and the “Max normalized Response” value ([1]; conc 11.1 uM) was 0.04953. For the same molecule, the “Max normalized Response” value ([1]; conc 33.3 uM) was 0.06371 and the “Max normalized Response” value ([1]; conc 100 uM) was 0.0598.
Molecule `N[C@@H](CC(=O)O)C(=O)O` [Aspartate] has a Response ([1]; conc 0.457247 uM, ED Fig 3a) of 0.065, a Response ([1]; conc 1.37174 uM, ED Fig 3a) of 0.034 and a Response ([1]; conc 12.3457 uM, ED Fig 3a) of 0.025. It also gave a Response ([1]; conc 37.037 uM, ED Fig 3a) of 0.074, a Response ([1]; conc 111.111 uM, ED Fig 3a) of 0.072 and a Response ([1]; conc 333.333 uM, ED Fig 3a) of 0.088. It also gave a Response ([1]; conc 1000 uM, ED Fig 3a) of 0.232.
Molecule ecgonine has a Response ([1]; conc 0.0137174 uM, ED Fig. 2b) of 0.052, a Response ([1]; conc 0.123457 uM, ED Fig. 2b) of 0.065 and a Response ([1]; conc 0.37037 uM, ED Fig. 2b) of 0.073. It also gave a Response ([1]; conc 1.11111 uM, ED Fig. 2b) of 0.07, a Response ([1]; conc 3.33333 uM, ED Fig. 2b) of 0.053 and a Response ([1]; conc 10 uM, ED Fig. 2b) of 0.084. The Response ([1]; conc 30 uM, ED Fig. 2b) was 0.084 and the “activation of coca-5HT3” value ([1]; membrane potential assay dose response) was “not activated”.
